Experimental data published in patent US9062061B2, “Compound having PARP inhibitory activity” (SANTEN PHARMACEUTICAL CO., LTD., priority 2011, dated 2015).
Values belong to the compound of their own block, whether it stands above or below them.

Target: T1, human recombinant PARP1 (Homo sapiens, UniProt P09874)
T1 construct: purchased Trevigen 4677-096-K
Test: PARP inhibitory activity measurement test (Universal Colorimetric PARP Assay kit, Trevigen)
Type: biochemical
Conditions: compound concentration: 10 μM, read-out: PARP1 inhibition rate (%)
Procedure: For evaluating PARP inhibitory activity of the present compound, inhibitory activity of each test compound against human recombinant PARP 1 was measured using Universal Colorimetric PARP Assay kit with Histone-Coated Strip Wells (Cat No.: 4677-096-K) available from Trevigen. The test was conducted according to the procedure in the instruction attached to this kit. The concrete operation will be described below.
After dissolving the test compound in dimethyl sulfoxide, the solution was diluted with a PARP buffer attached to the kit to prepare a 50 μM test compound solution.
In each well of a histone-coated 96-well plate, 10 μL of the test compound solution (50 μM), 15 μL of human recombinant PARP1 (33.3 Unit/mL) and 25 μL of PARP cocktail (containing activated DNA and biotinated NAD) were added, and incubated at room temperature for 1 hour (final reaction amount: 50 μL). Each well was washed twice with 200 μL of 0.1% Triton-X-containing Dulbecco's phosphate buffer, and further washed twice with 200 μL of Dulbecco's phosphate buffer, and then 50 μL of Strep-HRP was added, followed by incubation at room temperature for 1 hour. Each well was washed twice with 200 μL of 0.1% Triton-X-containing Dulbecco's phosphate buffer, and further washed twice with 200 μL of Dulbecco's phosphate buffer, and then 50 μL of TACS-Sapphire coloriometric substrate was added, followed by incubation at room temperature for 15 minutes. After stopping the reaction by adding 50 μL of 0.2 M HCl, absorbance at 450 nm (Abs 450) was measured by a microplate reader. The number of examples in each group was 1 to 2.
Using a well into which dimethyl sulfoxide and a PARP buffer were added in place of the test compound solution and human recombinant PARP1, the above operation was conducted as a negative control.
Using a well into which a PARP buffer containing dimethyl sulfoxide was added in place of the test compound solution, the above operation was conducted as a positive control.
PARP1 inhibition rate (%) was calculated according to the following Formula 1. PARP1 inhibition rate(%)=(AbsB−AbsX)/(AbsB−AbsA)×100 [Formula 1]
AbsA: absorbance of negative control (Abs 450)
AbsB: absorbance of positive control (Abs 450)
AbsX: absorbance of test compound-treated group (Abs 450)

T1 sequence (P09874 whole entry): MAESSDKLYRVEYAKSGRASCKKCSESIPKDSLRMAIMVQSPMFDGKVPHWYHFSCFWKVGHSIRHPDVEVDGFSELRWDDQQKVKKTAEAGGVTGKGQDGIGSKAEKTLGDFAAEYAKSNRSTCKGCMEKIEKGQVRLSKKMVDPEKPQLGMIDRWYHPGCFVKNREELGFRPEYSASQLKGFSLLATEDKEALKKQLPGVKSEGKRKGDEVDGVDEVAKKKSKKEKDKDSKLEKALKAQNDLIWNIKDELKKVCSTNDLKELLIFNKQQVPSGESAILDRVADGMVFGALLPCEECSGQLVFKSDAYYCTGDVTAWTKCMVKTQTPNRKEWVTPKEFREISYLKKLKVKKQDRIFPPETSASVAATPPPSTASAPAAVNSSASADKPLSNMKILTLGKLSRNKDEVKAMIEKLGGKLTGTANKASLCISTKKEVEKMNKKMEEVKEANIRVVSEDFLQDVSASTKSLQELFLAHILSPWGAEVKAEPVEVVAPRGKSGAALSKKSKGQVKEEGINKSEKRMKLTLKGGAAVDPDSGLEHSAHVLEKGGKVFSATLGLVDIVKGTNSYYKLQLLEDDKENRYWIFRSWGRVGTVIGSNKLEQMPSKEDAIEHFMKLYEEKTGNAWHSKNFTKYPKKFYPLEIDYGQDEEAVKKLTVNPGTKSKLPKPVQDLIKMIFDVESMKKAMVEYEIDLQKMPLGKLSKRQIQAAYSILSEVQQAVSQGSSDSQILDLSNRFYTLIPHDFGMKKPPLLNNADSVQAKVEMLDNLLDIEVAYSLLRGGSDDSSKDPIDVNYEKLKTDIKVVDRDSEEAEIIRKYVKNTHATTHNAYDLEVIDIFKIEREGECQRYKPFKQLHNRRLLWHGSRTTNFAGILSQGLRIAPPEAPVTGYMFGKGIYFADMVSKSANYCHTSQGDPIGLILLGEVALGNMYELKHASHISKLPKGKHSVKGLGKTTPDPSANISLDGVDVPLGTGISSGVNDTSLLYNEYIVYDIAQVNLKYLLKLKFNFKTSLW

Compound: O=c1[nH]c2cc(CN3CCN(c4cccc(F)c4)CC3)cn2c2ccccc12 [Compound 2-15, 2-[4-(3-Fluorophenyl)piperazin-1-ylmethyl]pyrrolo[1,2-a]quinazolin-5(4H)-one]
inhibition at 10 µM: 98%

Compound: CN(CCCc1ccccc1)Cc1cc2[nH]c(=O)c3ccccc3n2c1 [Compound 2-19, 2-[N-Methyl-N-(3-phenylpropyl)aminomethyl]pyrrolo[1,2-a]quinazolin-5(4H)-one]
inhibition at 10 µM: 93%

Compound: O=c1[nH]c2cc(CN3CCc4ccccc4C3)cn2c2ccccc12 [Compound 2-21, 2-(1,2,3,4-Tetrahydroisoquinolin-2(1H)-ylmethyl)pyrrolo[1,2-a]quinazolin-5(4H)-one]
inhibition at 10 µM: 65%

Compound: O=c1[nH]c2cc(CN3CCN(c4ccncc4)CC3)cn2c2ccccc12 [Compound 2-23, 2-[4-(Pyridin-4-yl)piperazin-1-ylmethyl]pyrrolo[1,2-a]quinazolin-5(4H)-one]
inhibition at 10 µM: 100%

Compound: CC1CN(c2ccc(F)cc2)CCN1Cc1cc2[nH]c(=O)c3ccccc3n2c1 (centres unmarked) [Compound 2-24, 2-[4-(4-Fluorophenyl)-2-methylpiperazin-1-ylmethyl]pyrrolo[1,2-a]quinazolin-5(4H)-one]
inhibition at 10 µM: 99%

Compound: COc1ccccc1N1CCN(Cc2cc3[nH]c(=O)c4ccccc4n3c2)CC1 [Compound 2-25, 2-[4-(2-Methoxyphenyl)piperazin-1-ylmethyl]pyrrolo[1,2-a]quinazolin-5(4H)-one]
inhibition at 10 µM: 100%

Compound: COc1cccc(N2CCN(Cc3cc4[nH]c(=O)c5ccccc5n4c3)CC2)c1 [Compound 2-26, 2-[4-(3-Methoxyphenyl)piperazin-1-ylmethyl]pyrrolo[1,2-a]quinazolin-5(4H)-one]
inhibition at 10 µM: 78%

Compound: O=c1[nH]c2cc(CN3CCN(C4CCCCC4)CC3)cn2c2ccccc12 [Compound 2-27, 2-(4-Cyclohexylpiperazin-1-ylmethyl)pyrrolo[1,2-a]quinazolin-5(4H)-one]
inhibition at 10 µM: 99%

Compound: O=c1[nH]c2cc(CN3CCN(c4ccc(C(F)(F)F)cc4)CC3)cn2c2ccccc12 [Compound 2-29, 2-[4-(4-Trifluoromethylphenyl)piperazin-1-ylmethyl]pyrrolo[1,2-a]quinazolin-5(4H)-one]
inhibition at 10 µM: 40%

Compound: Cc1cccc(N2CCN(Cc3cc4[nH]c(=O)c5ccccc5n4c3)CC2)c1 [Compound 2-32, 2-[4-(3-Methylphenyl)piperazin-1-ylmethyl]pyrrolo[1,2-a]quinazolin-5(4H)-one]
inhibition at 10 µM: 97%

Compound: O=c1[nH]c2cc(CN3CCC(N4CCCCC4)CC3)cn2c2ccccc12 [Compound 2-33, 2-[4-(Piperidin-1-yl)piperidin-1-ylmethyl]pyrrolo[1,2-a]quinazolin-5(4H)-one]
inhibition at 10 µM: 96%

Compound: O=c1[nH]c2cc(CN3CCCC3)cn2c2ccccc12 [Compound 2-34, 2-(Pyrrolidin-1-ylmethyl)pyrrolo[1,2-a]quinazolin-5(4H)-one]
inhibition at 10 µM: 96%

Further lines, results first:

inhibition at 10 µM: 95%
Compound: O=c1[nH]c2cc(CN3CCN(c4cccnc4)CC3)cn2c2ccccc12 [Compound 2-18, 2-[4-(Pyridine-3-yl)piperazin-1-ylmethyl]pyrrolo[1,2-a]quinazolin-5(4H)-one]

inhibition at 10 µM: 90%
Compound: O=c1[nH]c2cc(CN3CCN(c4ccc(Br)cc4)CC3)cn2c2ccccc12 [Compound 2-20, 2-[4-(4-Bromophenyl)piperazin-1-ylmethyl]pyrrolo[1,2-a]quinazolin-5(4H)-one]

inhibition at 10 µM: 97%
Compound: CN(C)C1CCN(Cc2cc3[nH]c(=O)c4ccccc4n3c2)CC1 [Compound 2-22, 2-(4-Dimethylaminopiperidin-1-ylmethyl)pyrrolo[1,2-a]quinazolin-5(4H)-one]

inhibition at 10 µM: 99%
Compound: O=c1[nH]c2cc(CN3CCN(CC4CC4)CC3)cn2c2ccccc12 [Compound 2-28, 2-(4-Cyclopropylmethylpiperazin-1-ylmethyl)pyrrolo[1,2-a]quinazolin-5(4H)-one]

inhibition at 10 µM: 66%
Compound: O=c1[nH]c2cc(CN3CCCC(c4ccccc4)C3)cn2c2ccccc12 (centres unmarked) [Compound 2-31, 2-(3-Phenylpiperidin-1-ylmethyl)pyrrolo[1,2-a]quinazolin-5(4H)-one]
